Measured values from EP4603105A1, “PHARMACEUTICAL COMPOSITION CONTAINING CYCLIC COMPOUND HAVING SELECTIVE KRAS INHIBITORY EFFECT AGAINST HRAS AND NRAS” (CHUGAI SEIYAKU KABUSHIKI KAISHA, priority 2022, dated 2024).
Where a SMILES comes first, the peptide text is derived from it. Bridges are numbered along the chain shown (N, C = ends). [ ]: non-standard residue; d: D form. The star is where a group is joined. hPhe(3-Cl-4-CF3) = N[C@@H](CCc1ccc(C(F)(F)F)c(Cl)c1)C(=O)O; NPrPhe(4-CF3) = CCCN[C@@H](Cc1ccc(C(F)(F)F)cc1)C(=O)O; NMeGly(cPent) = CN[C@H](C(=O)O)C1CCCC1; Gly(cPent) = N[C@H](C(=O)O)C1CCCC1; NMeD = CN[C@@H](CC(=O)O)C(=O)O; NMeL = CN[C@@H](CC(C)C)C(=O)O; Morpholide = C1CN(*)CCO1; Ac5c = NC1(C(=O)O)CCCC1; Sar = CNCC(=O)O

Columns and labels:
[1] = biological target: GDP-bound NRAS wild-type protein (Homo sapiens, UniProt P01111); experiment: Binding to NRAS by surface plasmon resonance (SPR), KD and KD ratio to KRAS
Chain of GDP-bound NRAS wild-type protein (P01111 whole entry): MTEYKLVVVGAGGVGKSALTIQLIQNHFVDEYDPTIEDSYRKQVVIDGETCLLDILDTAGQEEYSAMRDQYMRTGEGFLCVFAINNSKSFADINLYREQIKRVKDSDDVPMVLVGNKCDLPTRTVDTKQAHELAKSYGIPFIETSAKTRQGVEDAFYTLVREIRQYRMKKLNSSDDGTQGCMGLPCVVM
Description: (§1) Surface plasmon resonance was used to analyze the binding affinity of compounds for KRAS, NRAS, and HRAS. The apparatus used was Biacore 8K, 8K+, or T200 (GE Healthcare), and the running buffer used was HBS (10 mM HEPES-NaOH, 150 mM NaCl, pH 7.4) containing 1 mM DTT, 10 mM MgCl2, 0.01% Tween 20, 10 µM GDP, and 4% DMSO.
(§2) Biotinylated Avi-tag fusion KRAS, NRAS, and HRAS proteins were expressed in E. coli BL21 (DE3) strains, and after cells were homogenized, they were purified using Streptavidin Mutein Matrix and Superdex 75. After purification, GDP-loaded KRAS, NRAS, and HRAS proteins were immobilized on the surface of Sensor Chip CAP (Cytiva) coated with Biotin CAPture Reagent in an immobilization amount of about 100 to 300 RU. Binding of each compound was evaluated by the Single Cycle Kinetics method, and a running buffer or a compound solution was added to the RAS protein non-immobilized surface and the immobilized surface to obtain a binding response. The flow rate was set to 100 µL/min, and in the compound-adding cycle, compound solutions having different concentrations were intermittently added for 75 seconds each, starting from a low concentration. […] In the blank cycle, a running buffer was intermittently added and not the compound solution. The Biotin CAPture Reagent and RAS proteins were immobilized for each cycle, and at the end of each cycle, the sensor chip was regenerated by the regeneration solution appended to the Biotin CAPture Kit (Cytiva). Measurement was carried out at 30°C.
(§3) The resulting sensorgram was subjected to curve fitting based on a 1:1 binding model on Biacore Insight Evaluation Software or T200 Evaluation Software, and thereby the dissociation constant KD of each compound with respect to KRAS, NRAS, and HRAS was determined. […] Blank indicates a compound from which the KD value with respect to NRAS or HRAS was not obtained.

[2] = biological target: HRAS wild-type protein (Homo sapiens, UniProt P01112); experiment: Binding to HRAS by surface plasmon resonance (SPR), KD and KD ratio to KRAS
Chain of HRAS wild-type protein (P01112 whole entry): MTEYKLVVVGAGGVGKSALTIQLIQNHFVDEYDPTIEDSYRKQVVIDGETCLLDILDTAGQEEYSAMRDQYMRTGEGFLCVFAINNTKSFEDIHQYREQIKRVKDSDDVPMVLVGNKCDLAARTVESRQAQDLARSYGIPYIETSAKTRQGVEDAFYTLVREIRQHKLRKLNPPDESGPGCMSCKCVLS
Description: as §1, §2, §3

[3] = system: human lung cancer strain NCI-H441; type: cell-based
Description: A test compound was dispensed into a U-bottom 384-well plate as 40 nL serially diluted dimethyl sulfoxide solutions using a liquid handler Echo (LABCYTE). […] This cell suspension was dispensed in an amount of 40 µL per well into a plate containing the test compound, and cultured at 37°C in a 5% carbon dioxide gas incubator. Four days later, 20 µL of CellTiter-Glo (registered trademark) (Promega) was added to each well and […] was measured. […]

[4] = ratio of KD for GDP-bound NRAS wild-type protein to KD for KRAS
[5] = ratio of KD for HRAS wild-type protein to KD for KRAS
[6] = ratio of the KD value with respect to HRAS wild-type protein to the KD value with respect to KRAS
[7] = ratio of KD value for HRAS wild-type protein to KD value for KRAS (SPR)

IC50 [3] [nM]	Structure (SMILES)	HRAS /KRAS [2, 5]	also measured
16.7	CCO[C@@H]1C[C@H]2C(=O)NC3(CCC3)C(=O)N(C)[C@@H](C3CCCC3)C(=O)N(C)[C@H](C(=O)N3CCOCC3)CC(=O)N(C)[C@@H](CC(C)C)C(=O)N[C@@H](C3CC(F)(F)C3)C(=O)N(C)CC(=O)N(C)[C@H]3CCCCN(C3=O)[C@@H](Cc3ccc(C(F)(F)F)cc3)C(=O)N(C)CC(=O)N[C@@H](CCc3cc(F)c(C(F)(F)F)c(F)c3)C(=O)N2C1 [PP0807]	B (a compound having 3 or more and less than 10 is denoted as B)	NRAS /KRAS [1, 4]: B (a compound having 3 or more and less than 10 is denoted as B)
18.3	CC[C@H](C)[C@@H]1NC(=O)[C@H](CC(C)C)N(C)C(=O)C[C@@H](C(=O)N(C)CC)N(C)C(=O)[C@H](C2CCCC2)N(C)C(=O)C2(CCC2)NC(=O)[C@@H]2C[C@H](C)CN2C(=O)[C@H](CCc2ccc(C(F)(F)F)c(OC)c2)NC(=O)CN(C)C(=O)[C@H](Cc2ccc(C)cc2)N2CC/C=C\C[C@@H](C2=O)N(C)C(=O)CN(C)C1=O [PP1904]	–	NRAS /KRAS ([1]; ratio of the KD value with respect to GDP-bound NRAS wild-type protein to the KD value with respect to KRAS): A (a compound having 10 or more and less than 20 is denoted as A); HRAS /KRAS [2, 6]: B (a compound having 3 or more and less than 10 is denoted as B)
690	CCO[C@@H]1C[C@H]2C(=O)NC3(CC=CC3)C(=O)N(C)[C@@H](C3CCCC3)C(=O)N(CC)[C@H](C(=O)N3CCOCC3)CC(=O)N(C)[C@@H](CC(C)C)C(=O)N[C@@H]([C@@H](C)CC)C(=O)N(C)CC(=O)N(C)[C@H]3CCCCCN(C3=O)[C@@H](Cc3ccc(C(F)(F)F)cc3)C(=O)N(C)CC(=O)N[C@@H](CCc3cc(F)c(C(F)(F)F)c(F)c3)C(=O)N2C1 [PP0956]	A (a compound having 10 or more and less than 20 is denoted as A)	NRAS /KRAS [1, 4]: A (a compound having 10 or more and less than 20 is denoted as A)
35.2	C#CC[C@H]1C(=O)N[C@@H]([C@@H](C)CC)C(=O)N(C)CC(=O)N(C)[C@H]2C/C=C\CCN(C2=O)[C@@H](Cc2ccc(C(F)(F)F)cc2)C(=O)N(C)CC(=O)N[C@@H](CCc2ccc(C(F)(F)F)c(OC)c2)C(=O)N2CCOC[C@H]2C(=O)NC2(CC(C)(C)C2)C(=O)N(C)[C@@H](C2CCCC2)C(=O)N(C)[C@H](C(=O)N(C)C)CC(=O)N1C [PP2905]	A (a compound having 10 or more and less than 20 is denoted as A)	NRAS /KRAS [1, 4]: AA (a compound having 20 or more is denoted as AA)
1.9	CCO[C@@H]1C[C@H]2C(=O)NC3(CC(C)(C)C3)C(=O)N(C)[C@@H](C3CCCC3)C(=O)N(C)[C@H](C(=O)N(C)C)CC(=O)N(C)[C@@H](CC)C(=O)N[C@@H]([C@@H](C)CC)C(=O)N(C)CC(=O)N(C)[C@H]3C/C=C\CCN(C3=O)[C@@H](Cc3ccc(C(F)(F)F)cc3)C(=O)N(C)CC(=O)N[C@@H](CCc3ccc(C(F)(F)F)c(Cl)c3)C(=O)N2C1 [PP1746]	–	NRAS /KRAS ([1]; ratio of KD value for GDP-bound NRAS wild-type protein to KD value for KRAS (SPR)): A (a compound having 10 or more and less than 20 is denoted as A); HRAS /KRAS [2, 7]: A (a compound having 10 or more and less than 20 is denoted as A)
1.4	CCO[C@@H]1C[C@H]2C(=O)NC3(CC(C)(C)C3)C(=O)N(C)[C@@H](C3CCCC3)C(=O)N(C)[C@H](C(=O)N(C)C)CC(=O)N(C)[C@H]3CCCCCCc4ccc(cc4)C[C@@H](C(=O)N(C)CC(=O)N[C@@H](CCc4ccc(C(F)(F)F)c(OC)c4)C(=O)N2C1)N1CC/C=C\C[C@@H](C1=O)N(C)C(=O)CN(C1CC1)C(=O)[C@H]([C@@H](C)CC)NC3=O [PP3070]	B (a compound having 3 or more and less than 10 is denoted as B)	–
89.8	CCC[C@H]1C(=O)N[C@@H]([C@@H](C)CC)C(=O)N(C)CC(=O)N(C)[C@H]2C/C=C\CCN(C2=O)[C@@H](Cc2ccc(C)cc2)C(=O)N(C)CC(=O)N[C@@H](CCc2ccc(Cl)c(OC)c2)C(=O)N2C[C@H](OCC)C[C@H]2C(=O)NC2(CC(C)(C)C2)C(=O)N(C)[C@@H](C(CC)CC)C(=O)N(C)[C@H](C(=O)N(C)C)CC(=O)N1C [PP2791]	A (a compound having 10 or more and less than 20 is denoted as A)	–
39.3	CCO[C@@H]1C[C@H]2C(=O)NC3(CCC3)C(=O)N(C)[C@@H](C(CC)CC)C(=O)N3CCC[C@@H]3CC(=O)N(C)[C@@H](CC)C(=O)N[C@@H]([C@@H](C)CC)C(=O)N(C)CC(=O)N(C)[C@H]3C/C=C\CCN(C3=O)[C@@H](Cc3ccc(C(F)(F)F)cc3)C(=O)N(C)CC(=O)N[C@@H](CCc3cc(F)c(C(F)(F)F)c(F)c3)C(=O)N2C1 [PP1607]	–	HRAS /KRAS [2, 7]: A (a compound having 10 or more and less than 20 is denoted as A)
3420	CC[C@H](C)[C@@H]1NC(=O)[C@H](CC(C)C)N(C)C(=O)CSC[C@H](C(=O)N(C)C)N(C)C(=O)[C@H](C2CCCC2)N(C)C(=O)C2(CCCC2)NC(=O)[C@@H]2CCCN2C(=O)[C@H](CCc2cc(F)c(C(F)(F)F)c(F)c2)NC(=O)CN(C)C(=O)[C@H](Cc2ccc(C(F)(F)F)cc2)N2CC/C=C\C[C@@H](C2=O)N(C)C(=O)CN(C)C1=O [PP3109]	–	–
17.3	CC[C@H](C)[C@@H]1NC(=O)[C@H](CC)N(C)C(=O)C[C@@H](C(=O)N(C)CC)N(C)C(=O)[C@H](C2CCCC2)N(C)C(=O)C2(CC(C)(C)C2)NC(=O)[C@@H]2C[C@@H](C)CN2C(=O)[C@H](CCc2cc(F)c(C(F)(F)F)c(F)c2)NC(=O)CN(C)C(=O)[C@H](Cc2ccc(C)cc2)N2CC/C=C\C[C@@H](C2=O)N(C)C(=O)CN(C)C1=O [PP1884]	–	–
8.4	CCCN1C(=O)CN(C)C(=O)CN(C)C(=O)[C@H](C2CCCC2)NC(=O)[C@H](CC(C)C)N(C)C(=O)C[C@@H](C(=O)N2CCOCC2)N(C)C(=O)[C@H](C2CCCC2)N(C)C(=O)C2(CCCC2)NC(=O)[C@@H]2CCCN2C(=O)[C@H](CCc2ccc(C(F)(F)F)c(Cl)c2)NC(=O)CN(C)C(=O)[C@@H]1Cc1ccc(C(F)(F)F)cc1 [PP0251] ([NMeL][Gly(cPent)][Sar][Sar][NPrPhe(4-CF3)][Sar][hPhe(3-Cl-4-CF3)]P[Ac5c][NMeGly(cPent)][NMeD]-Morpholide; lactam N-11)	–	–
9.6	CCO[C@@H]1C[C@H]2C(=O)NC3(CC(C)(C)C3)C(=O)N(C)[C@@H](C3CCCC3)C(=O)N(C)[C@H](C(=O)N(C)CC)CC(=O)N(C)[C@@H]([C@@H](C)OC)C(=O)N[C@@H]([C@@H](C)CC)C(=O)N(C)CC(=O)N(C)[C@H]3C/C=C\CCN(C3=O)[C@@H](Cc3ccc(C(F)(F)F)cc3)C(=O)N(C)CC(=O)N[C@@H](CCc3ccc(C(F)(F)F)c(Cl)c3)C(=O)N2C1 [PP3162]	–	–
20.2	CC[C@H](C)[C@@H]1NC(=O)[C@H](CC)N(C)C(=O)C[C@@H](C(=O)N(C)CC)N(C)C(=O)[C@H](C2CCCC2)N(C)C(=O)C2(CC(C)(C)C2)NC(=O)[C@@H]2C[C@H](C)CN2C(=O)[C@H](CCc2cc(F)c(C(F)(F)F)c(F)c2)NC(=O)CN(C)C(=O)[C@H](Cc2ccc(C)cc2)N2CC/C=C\C[C@@H](C2=O)N(C)C(=O)CN(C)C1=O [PP1882]	–	–
17.7	CCO[C@@H]1C[C@H]2C(=O)NC3(CC(C)(C)C3)C(=O)N(C)[C@@H](C3CCCC3)C(=O)N(C)[C@H](C(=O)N(C)CC)CC(=O)N(C)[C@@H](C3CCC3)C(=O)N[C@@H]([C@@H](C)CC)C(=O)N(C)CC(=O)N(C)[C@H]3C/C=C\CCN(C3=O)[C@@H](Cc3ccc(C(F)(F)F)cc3)C(=O)N(C)CC(=O)N[C@@H](CCc3ccc(C(F)(F)F)c(OC)c3)C(=O)N2C1 [PP1985]	–	HRAS /KRAS [2, 6]: B (a compound having 3 or more and less than 10 is denoted as B)
39.7	CCCN1C(=O)CN(C)C(=O)CN(C)C(=O)[C@H]([C@@H](C)CC)NC(=O)[C@H](CC(C)C)N(C)C(=O)C[C@@H](C(=O)N2CCOCC2)N(C)C(=O)[C@H](C2CCCC2)N(C)C(=O)C2(CCCC2)NC(=O)[C@H](C)NC(=O)[C@H](CCc2ccc(C(F)(F)F)c(Cl)c2)NC(=O)CN(C)C(=O)[C@@H]1Cc1ccc(C(F)(F)F)cc1 [PP1914] ([NMeL]I[Sar][Sar][NPrPhe(4-CF3)][Sar][hPhe(3-Cl-4-CF3)]A[Ac5c][NMeGly(cPent)][NMeD]-Morpholide; lactam N-11)	–	–

Structure (SMILES)	IC50 [3] [nM]	HRAS /KRAS [2, 5]	also measured
CCC[C@H]1C(=O)N[C@@H]([C@@H](C)CC)C(=O)N(C)CC(=O)N(C)[C@H]2C/C=C\CCN(C2=O)[C@@H](Cc2ccc(C(F)(F)F)cc2)C(=O)N(C)CC(=O)N[C@@H](CCc2ccc(C(F)(F)F)c(OC)c2)C(=O)N2C[C@H](OCC)C[C@H]2C(=O)N(C)C2(CCC2)C(=O)N(C)[C@@H](C2CCCC2)C(=O)N(C)[C@H](C(=O)N2CCCCC2)CC(=O)N1C [PP3103]	21.5	A (a compound having 10 or more and less than 20 is denoted as A)	–
